Test results published in ChEMBL document CHEMBL5352490, “SAR investigation and optimization of benzimidazole-based derivatives as antimicrobial agents against Gram-negative bacteria” (Eur J Med Chem, 2023).
Values after ≈ are worked out from the molar mass of the structure shown.

Columns and labels:
Escherichia coli [1] = assay: Antibacterial activity against Escherichia coli tolC mutant incubated for 24 hrs by broth microdilution method; format: functional
[2] = Cytotoxicity against African green monkey Vero cells assessed as reduction in cell viability incubated for 24 hrs by MTS assay; format: toxicity, cell-based; conditions: chlorocebus sabaeus
Escherichia coli [3] = assay: Bacteriostatic effect in Escherichia coli JW55031 assessed as log reduction in bacterial burden at 10 times MIC measured after 24 hrs by time kill assay; format: functional
Escherichia coli [4] = assay: Bacteriostatic effect in Escherichia coli JW55031 assessed as log reduction in bacterial count at 5 times MIC measured at 24 hrs by time kill assay; format: functional
Escherichia coli [5] = assay: Bacteriostatic effect in Escherichia coli JW55031 assessed as log reduction in bacterial count at 10 times MIC measured at 24 hrs by time kill assay; format: functional
Escherichia coli [6] = assay: Antibacterial activity against wild type Escherichia coli BW25113 incubated for 24 hrs in absence of colistin by broth microdilution method; format: functional
Escherichia coli [7] = assay: Synergistic antibacterial activity against wild type Escherichia coli BW25113 incubated for 24 hrs in presence of colistin by broth microdilution method; format: functional
Klebsiella pneumoniae [8] = assay: Antibacterial activity against Klebsiella pneumoniae ATCC 1706 incubated for 24 hrs in absence of colistin by broth microdilution method; format: functional
Klebsiella pneumoniae [9] = assay: Synergistic antibacterial activity against Klebsiella pneumoniae ATCC 1706 incubated for 24 hrs in presence of colistin by broth microdilution method; format: functional
Acinetobacter baumannii [10] = assay: Antibacterial activity against Acinetobacter baumannii ATCC 19606 incubated for 24 hrs in absence of colistin by broth microdilution method; format: functional
Acinetobacter baumannii [11] = assay: Synergistic antibacterial activity against Acinetobacter baumannii ATCC 19606 incubated for 24 hrs in presence of colistin by broth microdilution method; format: functional
Pseudomonas aeruginosa [12] = assay: Antibacterial activity against Pseudomonas aeruginosa ATCC 9027 incubated for 24 hrs in absence of colistin by broth microdilution method; format: functional
Pseudomonas aeruginosa [13] = assay: Synergistic antibacterial activity against Pseudomonas aeruginosa ATCC 9027 incubated for 24 hrs in presence of colistin by broth microdilution method; format: functional

Row | Compound | MIC (Escherichia coli [1]) [µg/mL] | also measured
1 | Cc1ccc(Cn2c(-c3cccc(NS(=O)(=O)c4ccc(N)cc4)c3)nc3ccccc32)cc1 | > 64 | –
2 | Cc1ccc(Cn2c(-c3cccc(NS(C)(=O)=O)c3)nc3ccc(C#N)cc32)cc1 | > 64 | –
3 | Cc1ccc(Cn2c(-c3cccc(NS(C)(=O)=O)c3)nc3ccc(N)cc32)cc1 | > 64 | –
4 | Cc1ccc(Cn2c(-c3cccc(NS(=O)(=O)c4ccccc4)c3)nc3ccccc32)cc1 | 1 (≈ 2.2 µM) | –
5 | CS(=O)(=O)Nc1cccc(-c2nc3ccccc3n2Cc2ccc(-c3ncon3)cc2)c1 | > 64 | –
6 | Cc1ccc(Cn2c(-c3cccc(NS(C)(=O)=O)c3)nc3cc(C(=O)O)ccc32)cc1 | > 64 | –
7 | Cc1ccc(Cn2c(-c3cccc(NS(=O)(=O)c4ccc(OC(F)(F)F)cc4)c3)nc3ccccc32)cc1 | > 64 | –
8 | Cc1ccc(Cn2c(-c3cccc(NS(C)(=O)=O)c3)nc3ccc(Br)cc32)cc1 | > 64 | –
9 | Cc1ccc(Cn2c(-c3cccc(NS(=O)(=O)c4ccc(C(C)(C)C)cc4)c3)nc3ccccc32)cc1 | > 64 | –
10 | Cc1ccc(Cn2c(-c3cccc(NS(=O)(=O)c4ccc(C(F)(F)F)cc4)c3)nc3ccccc32)cc1 | > 64 | –
11 | Cc1ccc(Cn2c(-c3cccc(C(=N)NO)c3)nc3ccccc32)cc1 | > 64 | –
12 | Cc1ccc(Cn2c(-c3cccc(NS(C)(=O)=O)c3)nc3ccc(C(=N)NO)cc32)cc1 | > 64 | –
13 | Cc1ccc(Cn2c(-c3cccc(NS(=O)(=O)c4ccccc4[N+](=O)[O-])c3)nc3ccccc32)cc1 | 1 (≈ 2.01 µM) | –
14 | Cc1ccc(Cn2c(-c3cccc(NS(=O)(=O)c4ccc5ccccc5c4)c3)nc3ccccc32)cc1 | > 64 | –
15 | Cc1ccc(Cn2c(-c3cccc(NS(=O)(=O)c4ccc([N+](=O)[O-])cc4)c3)nc3ccccc32)cc1 | > 64 | –
16 | CCOC(=O)c1cccc2nc(-c3cccc(NS(C)(=O)=O)c3)n(Cc3ccc(C)cc3)c12 | > 64 | –
17 | Cc1ccc(Cn2c(-c3cccc(NS(=O)(=O)c4ccc(-c5ccccc5)cc4)c3)nc3ccccc32)cc1 | > 64 | –
18 | CCOC(=O)Nc1ccc2c(c1)nc(-c1cccc(NS(C)(=O)=O)c1)n2Cc1ccc(C)cc1 | > 64 | –
19 | Cc1ccc(Cn2c(-c3cccc(NS(=O)(=O)c4cccc(Cl)c4)c3)nc3ccccc32)cc1 | 0.125 (≈ 0.256 µM) | CC50 at 24 h [2]: > 128 µg/mL; log(activity) (Escherichia coli [3]): 0.4; log(activity) (Escherichia coli [4]): 2.54; log(activity) (Escherichia coli [5]): 2.9; MIC (Escherichia coli [6]): > 64 µg/mL; MIC (Escherichia coli [7]): 16 µg/mL; MIC (Klebsiella pneumoniae [8]): > 64 µg/mL; MIC (Klebsiella pneumoniae [9]): 8 µg/mL; MIC (Acinetobacter baumannii [10]): > 64 µg/mL; MIC (Acinetobacter baumannii [11]): 4 µg/mL; MIC (Pseudomonas aeruginosa [12]): > 64 µg/mL; MIC (Pseudomonas aeruginosa [13]): 16 µg/mL
20 | Cc1ccc(Cn2c(-c3cccc(NS(C)(=O)=O)c3)nc3ccccc32)cc1 | 2 (≈ 5.11 µM) | –
21 | CC[C@H]1OC(=O)[C@H](C)[C@@H](O[C@H]2C[C@@](C)(OC)[C@@H](O)[C@H](C)O2)[C@H](C)[C@@H](O[C@@H]2O[C@H](C)C[C@H](N(C)C)[C@H]2O)[C@](C)(O)C[C@@H](C)C(=O)[C@H](C)[C@@H](O)[C@]1(C)O [ERYTHROMYCIN] | – | MIC (Escherichia coli [6]): 32 µg/mL (≈ 43.6 µM); MIC (Escherichia coli [7]): 2 µg/mL; MIC (Klebsiella pneumoniae [8]): 64 µg/mL (≈ 87.2 µM); MIC (Klebsiella pneumoniae [9]): 4 µg/mL; MIC (Acinetobacter baumannii [10]): 8 µg/mL (≈ 10.9 µM); MIC (Acinetobacter baumannii [11]): 0.25 µg/mL; MIC (Pseudomonas aeruginosa [12]): > 64 µg/mL; MIC (Pseudomonas aeruginosa [13]): 8 µg/mL
22 | Cc1ccc(Cn2c(-c3cccc(-c4nnn[nH]4)c3)nc3ccccc32)cc1 | 8 (≈ 21.8 µM) | –
23 | Cc1ccc(Cn2c(-c3cccc(NS(=O)(=O)c4cccc([N+](=O)[O-])c4)c3)nc3ccccc32)cc1 | 2 (≈ 4.01 µM) | –
24 | Cc1ccc(Cn2c(-c3cccc(NS(C)(=O)=O)c3)nc3cc(C(F)(F)F)ccc32)cc1 | > 64 | –
25 | Cc1ccc(Cn2c(-c3cccc(NS(=O)(=O)c4ccc(F)c(Cl)c4)c3)nc3ccccc32)cc1 | 2 (≈ 3.95 µM) | –
26 | COc1ccc(S(=O)(=O)Nc2cccc(-c3nc4ccccc4n3Cc3ccc(C)cc3)c2)cc1OC | 4 (≈ 7.79 µM) | –
27 | CS(=O)(=O)Nc1cccc(-c2nc3ccccc3n2Cc2ccc(-c3nnn[nH]3)cc2)c1 | > 64 | –

Row | Compound | MIC (Escherichia coli [1]) [µg/mL] | also measured
28 | Cc1ccc(Cn2c(-c3cccc(NS(=O)(=O)c4ccc(F)c(F)c4)c3)nc3ccccc32)cc1 | 1 (≈ 2.04 µM) | –
29 | Cc1ccc(Cn2c(-c3cccc(C(=N)N)c3)nc3ccccc32)cc1 | 32 (≈ 94 µM) | –
30 | Cc1ccc(Cn2c(-c3cccc(NS(=O)(=O)c4cccc(N)c4)c3)nc3ccccc32)cc1 | 2 (≈ 4.27 µM) | –
31 | Cc1ccc(Cn2c(-c3cccc(NS(=O)(=O)c4cccc(Br)c4)c3)nc3ccccc32)cc1 | 0.5 (≈ 0.939 µM) | –
32 | Cc1ccc(Cn2c(-c3cccc(NS(C)(=O)=O)c3)nc3ccc(C(=O)O)cc32)cc1 | > 64 | –
33 | Cc1ccc(Cn2c(-c3cccc(NS(=O)(=O)c4ccc(Cl)cc4)c3)nc3ccccc32)cc1 | 2 (≈ 4.1 µM) | –
34 | Cc1ccc(Cn2c(-c3cccc(NS(C)(=O)=O)c3)nc3cccc(C(=O)O)c32)cc1 | > 64 | –
35 | Cc1ccc(Cn2c(-c3cccc(-c4ncon4)c3)nc3ccccc32)cc1 | > 64 | –
36 | Cc1ccc(Cn2c(-c3cccc(NS(=O)(=O)c4ccc(C)cc4)c3)nc3ccccc32)cc1 | 2 (≈ 4.28 µM) | –
37 | Cc1ccc(Cn2c(-c3cccc(NS(=O)(=O)c4ccc(C(C)C)cc4)c3)nc3ccccc32)cc1 | > 64 | –
38 | GENTAMICIN | 0.25 | –
39 | Cc1ccc(Cn2c(-c3cccc(NS(C)(=O)=O)c3)nc3cc(N)ccc32)cc1 | > 64 | –
40 | Cc1ccc(Cn2c(-c3cccc(NS(C)(=O)=O)c3)nc3cc(C)ccc32)cc1 | > 64 | –
41 | CCOC(=O)c1ccc2c(c1)nc(-c1cccc(NS(C)(=O)=O)c1)n2Cc1ccc(C)cc1 | > 64 | –
42 | Cc1ccc(Cn2c(-c3cccc(NS(=O)(=O)C4CC4)c3)nc3ccccc32)cc1 | 1 (≈ 2.4 µM) | –
43 | CCCCCCCCCC(=O)N[C@@H](Cc1c[nH]c2ccccc12)C(=O)N[C@H](CC(N)=O)C(=O)N[C@@H](CC(=O)O)C(=O)N[C@@H]1C(=O)NCC(=O)N[C@@H](CCCN)C(=O)N[C@@H](CC(=O)O)C(=O)N[C@H](C)C(=O)N[C@@H](CC(=O)O)C(=O)NCC(=O)N[C@H](CO)C(=O)N[C@@H]([C@H](C)CC(=O)O)C(=O)N[C@@H](CC(=O)c2ccccc2N)C(=O)O[C@@H]1C | – | MIC (Escherichia coli [6]): > 128 µg/mL; MIC (Escherichia coli [7]): > 128 µg/mL; MIC (Klebsiella pneumoniae [8]): > 128 µg/mL; MIC (Klebsiella pneumoniae [9]): > 128 µg/mL; MIC (Acinetobacter baumannii [10]): > 128 µg/mL; MIC (Acinetobacter baumannii [11]): > 128 µg/mL; MIC (Pseudomonas aeruginosa [12]): > 128 µg/mL; MIC (Pseudomonas aeruginosa [13]): > 128 µg/mL
44 | Cc1ccc(Cn2c(-c3cccc(NS(C)(=O)=O)c3)nc3cc(Br)ccc32)cc1 | > 64 | –
45 | Cc1ccc(Cn2c(-c3cccc(NS(C)(=O)=O)c3)nc3cc(C#N)ccc32)cc1 | > 64 | –
46 | COc1ccc(S(=O)(=O)Nc2cccc(-c3nc4ccccc4n3Cc3ccc(C)cc3)c2)cc1 | 4 (≈ 8.27 µM) | –
47 | CC(=O)NC[C@H]1CN(c2ccc(N3CCOCC3)c(F)c2)C(=O)O1 [LINEZOLID] | 8 (≈ 23.7 µM) | –
48 | CS(=O)(=O)Nc1cccc(-c2nc3ccccc3n2Cc2ccc(C(=N)NO)cc2)c1 | > 64 | –
49 | CCOC(=O)Nc1ccc2nc(-c3cccc(NS(C)(=O)=O)c3)n(Cc3ccc(C)cc3)c2c1 | > 64 | –
50 | CCOC(=O)c1ccc2nc(-c3cccc(NS(C)(=O)=O)c3)n(Cc3ccc(C)cc3)c2c1 | > 64 | –
51 | Cc1ccc(Cn2c(-c3cccc(NS(C)(=O)=O)c3)nc3ccc(C)cc32)cc1 | > 64 | –
52 | Cc1ccc(Cn2c(-c3cccc(NS(C)(=O)=O)c3)nc3cc(C(=N)NO)ccc32)cc1 | > 64 | –
53 | Cc1ccc(Cn2c(-c3cccc(NS(=O)(=O)c4ccc(Br)cc4)c3)nc3ccccc32)cc1 | > 64 | –
54 | CC(=O)Nc1ccc(S(=O)(=O)Nc2cccc(-c3nc4ccccc4n3Cc3ccc(C)cc3)c2)cc1 | > 64 | –
